Key:
Type in all cases: cell-based, human
[1] = system: RXF 393; experiment: NCI60 antitumor screening; conditions: 10 μM one-dose
[2] = system: U251; experiment: NCI60 antitumor screening; conditions: 10 μM one-dose
[3] = system: IGROV1; experiment: NCI60 antitumor screening; conditions: 10 μM one-dose
[4] = system: OVCAR-3; experiment: NCI60 antitumor screening; conditions: 10 μM one-dose
[5] = system: NCI-H460; experiment: NCI60 antitumor screening; conditions: 10 μM one-dose
[6] = system: A498; experiment: NCI60 antitumor screening; conditions: 10 μM one-dose
[7] = system: SW-620; experiment: NCI60 antitumor screening; conditions: 10 μM one-dose
[8] = system: SK-MEL-5; experiment: NCI60 antitumor screening; conditions: 10 μM one-dose
[9] = system: T-47D; experiment: NCI60 antitumor screening; conditions: 10 μM one-dose
[10] = system: RPMI-8226; experiment: NCI60 antitumor screening; conditions: 10 μM one-dose
[11] = system: OVCAR-4; experiment: NCI60 antitumor screening; conditions: 10 μM one-dose
[12] = system: PC-3; experiment: NCI60 antitumor screening; conditions: 10 μM one-dose
[13] = system: MOLT-4; experiment: NCI60 antitumor screening; conditions: 10 μM one-dose
[14] = system: CAKI-1; experiment: NCI60 antitumor screening; conditions: 10 μM one-dose
[15] = system: NCI-H226; experiment: NCI60 antitumor screening; conditions: 10 μM one-dose
[16] = system: SF-268; experiment: NCI60 antitumor screening; conditions: 10 μM one-dose
[17] = system: NCI/ADR-RES; experiment: NCI60 antitumor screening; conditions: 10 μM one-dose
[18] = system: NCI60 cell lines panel; experiment: NCI60 antitumor screening, full panel; conditions: 10 μM one-dose, mean over NCI60
Outline: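 Percent growth inhibition (GI%) was recorded for each of the NCI60 lines, spanning leukaemia, lung, colon, CNS, melanoma, ovarian, renal, prostate and breast cancers, after exposure to compounds at one concentration, 10 μM.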

[19] = system: BT-549; experiment: NCI60 antitumor screening; conditions: 10 μM one-dose
[20] = system: SF-295; experiment: NCI60 antitumor screening; conditions: 10 μM one-dose
[21] = system: OVCAR-8; experiment: NCI60 antitumor screening; conditions: 10 μM one-dose
[22] = system: SR; experiment: NCI60 antitumor screening; conditions: 10 μM one-dose
[23] = system: MCF7; experiment: NCI60 antitumor screening; conditions: 10 μM one-dose
[24] = system: MDA-MB-468; experiment: NCI60 antitumor screening; conditions: 10 μM one-dose
[25] = system: SN12C; experiment: NCI60 antitumor screening; conditions: 10 μM one-dose
[26] = system: HS 578T; experiment: NCI60 antitumor screening; conditions: 10 μM one-dose
[27] = system: HCC-2998; experiment: NCI60 antitumor screening; conditions: 10 μM one-dose
[28] = system: SK-MEL-2; experiment: NCI60 antitumor screening; conditions: 10 μM one-dose
[29] = system: ACHN; experiment: NCI60 antitumor screening; conditions: 10 μM one-dose
[30] = system: UACC-257; experiment: NCI60 antitumor screening; conditions: 10 μM one-dose
[31] = system: MDA-MB-231/ATCC; experiment: NCI60 antitumor screening; conditions: 10 μM one-dose
[32] = system: LOX IMVI; experiment: NCI60 antitumor screening; conditions: 10 μM one-dose
[33] = system: NCI-H522; experiment: NCI60 antitumor screening; conditions: 10 μM one-dose
[34] = system: MALME-3M; experiment: NCI60 antitumor screening; conditions: 10 μM one-dose
[35] = system: SNB-19; experiment: NCI60 antitumor screening; conditions: 10 μM one-dose
[36] = system: COLO 205; experiment: NCI60 antitumor screening; conditions: 10 μM one-dose
[37] = system: K-562; experiment: NCI60 antitumor screening; conditions: 10 μM one-dose
[38] = system: HCT-15; experiment: NCI60 antitumor screening; conditions: 10 μM one-dose
[39] = system: NCI-H23; experiment: NCI60 antitumor screening; conditions: 10 μM one-dose
[40] = system: MDA-MB-435; experiment: NCI60 antitumor screening; conditions: 10 μM one-dose
[41] = system: HOP-92; experiment: NCI60 antitumor screening; conditions: 10 μM one-dose
[42] = system: UACC-62; experiment: NCI60 antitumor screening; conditions: 10 μM one-dose
[43] = system: NCI-H322M; experiment: NCI60 antitumor screening; conditions: 10 μM one-dose
[44] = system: A549/ATCC; experiment: NCI60 antitumor screening; conditions: 10 μM one-dose
[45] = system: HL-60(TB); experiment: NCI60 antitumor screening; conditions: 10 μM one-dose
[46] = system: SF-539; experiment: NCI60 antitumor screening; conditions: 10 μM one-dose
[47] = system: DU-145; experiment: NCI60 antitumor screening; conditions: 10 μM one-dose
[48] = system: CCRF-CEM; experiment: NCI60 antitumor screening; conditions: 10 μM one-dose
[49] = system: SK-OV-3; experiment: NCI60 antitumor screening; conditions: 10 μM one-dose
[50] = system: UO-31; experiment: NCI60 antitumor screening; conditions: 10 μM one-dose
[51] = system: SNB-75; experiment: NCI60 antitumor screening; conditions: 10 μM one-dose
[52] = system: TK-10; experiment: NCI60 antitumor screening; conditions: 10 μM one-dose
[53] = system: OVCAR-5; experiment: NCI60 antitumor screening; conditions: 10 μM one-dose
[54] = system: HCT-116; experiment: NCI60 antitumor screening; conditions: 10 μM one-dose
[55] = system: HOP-62; experiment: NCI60 antitumor screening; conditions: 10 μM one-dose
[56] = system: EKVX; experiment: NCI60 antitumor screening; conditions: 10 μM one-dose
[57] = system: HT29; experiment: NCI60 antitumor screening; conditions: 10 μM one-dose
[58] = system: M14; experiment: NCI60 antitumor screening; conditions: 10 μM one-dose
[59] = system: 786–0; experiment: NCI60 antitumor screening; conditions: 10 μM one-dose
[60] = system: SK-MEL-28; experiment: NCI60 antitumor screening; conditions: 10 μM one-dose
[61] = system: KM12; experiment: NCI60 antitumor screening; conditions: 10 μM one-dose

Cc1ccc(CSc2nc(Cl)c(C#N)c(-c3ccc(F)cc3)n2)cc1 [3d, 4-Chloro-6-(4-fluorophenyl)-2-((4-methylbenzyl)thio)pyrimidine-5-carbonitrile]
GI% [1]: 12.49%
GI% [2]: 15.75%
GI% [3]: — (GI% < 10)
GI% [4]: — (GI% < 10)
GI% [5]: — (GI% < 10)
GI% [6]: — (GI% < 10)
GI% [7]: 11.21%
GI% [8]: 15.98%
GI% [9]: 46.84%
GI% [10]: 25.03%
GI% [11]: 14.97%
GI% [12]: 35.47%
GI% [13]: 29.08%
GI% [14]: 16.99%
GI% [15]: 37.93%
GI% [16]: 12.95%
GI% [17]: 14.93%
Mean GI% [18]: 12.62%
GI% [19]: 18.08%
GI% [20]: 11.51%
GI% [21]: — (GI% < 10)
GI% [22]: — (GI% < 10)
GI% [23]: 12.55%
GI% [24]: — (GI% < 10)
GI% [25]: 27.59%
GI% [26]: — (GI% < 10)
GI% [27]: — (GI% < 10)
GI% [28]: — (GI% < 10)
GI% [29]: — (GI% < 10)
GI% [30]: — (GI% < 10)
GI% [31]: — (GI% < 10)
GI% [32]: — (GI% < 10)
GI% [33]: 29.73%
GI% [34]: — (GI% < 10)
GI% [35]: — (GI% < 10)
GI% [36]: — (GI% < 10)
GI% [37]: 42.83%
GI% [38]: 24.97%
GI% [39]: — (GI% < 10)
GI% [40]: — (GI% < 10)
GI% [41]: 34.25%
GI% [42]: 17.58%
GI% [43]: — (GI% < 10)
GI% [44]: 16.81%
GI% [45]: 51.77%
GI% [46]: 15.58%
GI% [47]: 18.41%
GI% [48]: 29.71%
GI% [49]: — (GI% < 10)
GI% [50]: 17.01%
GI% [51]: — (GI% < 10)
GI% [52]: — (GI% < 10)
GI% [53]: — (GI% < 10)
GI% [54]: 25.73%
GI% [55]: — (GI% < 10)
GI% [56]: 20.92%
GI% [57]: 51.51%
GI% [58]: — (GI% < 10)
GI% [59]: 12.30%
GI% [60]: — (GI% < 10)
GI% [61]: 19.05%

N#Cc1c(-c2ccc(F)cc2)nc(SCc2ccc([N+](=O)[O-])cc2)nc1N1CCOCC1 [4c, 4-(4-Fluorophenyl)-6-morpholino-2-((4-nitrobenzyl)thio) pyrimidine-5-carbonitrile]
GI% ([1]; Table 1): 90.21%
GI% [2]: 44.68%
GI% [3]: 19.45%
GI% [4]: 30.28%
GI% [5]: 22.56%
GI% [6]: 35.57%
GI% [7]: 19.46%
GI% [8]: 38.14%
GI% [9]: 44.55%
GI% [10]: 19.73%
GI% [11]: 42.76%
GI% ([11]; Table 1): — (GI value > 70%)
GI% [12]: 40.85%
GI% [13]: 26.34%
GI% [14]: 64.15%
GI% ([15]; Table 1): 76.22%
GI% [16]: 50.66%
GI% [17]: 58.37%
Mean GI% [18]: 39.54%
GI% [19]: 41.46%
GI% [20]: 58.52%
GI% [21]: 46.89%
GI% ([22]; Table 1): — (GI value > 70%)
GI% [23]: 41.49%
GI% [24]: 49.44%
GI% [25]: 25.44%
GI% ([26]; Table 1): 84.42%
GI% [27]: — (GI% < 10)
GI% [28]: 12.63%
GI% [29]: 48.98%
GI% [30]: 45.85%
GI% [31]: 52.93%
GI% [32]: 15.29%
GI% [33]: 58.72%
GI% [34]: 57.24%
GI% [35]: 53.96%
GI% [36]: — (GI% < 10)
GI% [37]: 23.12%
GI% ([37]; Table 1): — (GI value > 70%)
GI% [38]: 27.19%
GI% [39]: 25.17%
GI% [40]: 16.03%
GI% [41]: 63.28%
GI% [42]: 37.29%
GI% [43]: 17.30%
GI% [44]: 36.61%
GI% [45]: 17.28%
GI% ([46]; Table 1): 73.77%
GI% [47]: 26.65%
GI% [48]: 22.80%
GI% [49]: 55.46%
GI% [50]: 49.11%
GI% ([51]; Table 1): 92.38%
GI% [52]: 15.83%
GI% [53]: — (GI% < 10)
GI% [54]: 35.64%
GI% [55]: 65.34%
GI% ([55]; Table 1): — (GI value > 70%)
GI% [56]: 60.74%
GI% [57]: 13.41%
GI% [58]: 12.25%
GI% [59]: 69.78%
GI% ([59]; Table 1): — (GI value > 70%)
GI% [60]: 17.90%
GI% [61]: 15.07%
